From publication PMC6825211 (Nature Communications, 2019)
“And” between values parts separate entries of the source, which are not always exact repeats. Equal entries are not always repeated.

Assays:
INS-1E cells = assay: Western blot of pMST1, caspase-3/PARP cleavage, PDX1, BIM under diabetogenic conditions; format: cell-based, rat
Experimental: . pThr183), caspase-3 and PARP cleavage, PDX1, tubulin, and actin were analyzed by western blotting. Representative Western blots and pooled quantitative densitometry analysis are shown from three independent cell line experiments (n = 3). […]; all by Student’s t tests.
. pThr183), caspase-3 and PARP cleavage, and BIM and actin were analyzed by western blotting. Representative Western blots (b) and pooled quantitative densitometry analysis (c) are shown from 3–6 independent culture dishes (n = 3–6). […]; all by Student’s t tests.
Human islets were isolated from eight pancreases of nondiabetic organ donors at PRODO Labs and at Lille University and cultured on extracellular matrix-coated dishes (Novamed, Jerusalem, Israel)[62] or on Biocoat Collagen I coated dishes (#356400, Corning, ME, USA). […] The clonal rat β-cell line INS-1E was kindly provided by Dr. Claes Wollheim, Geneva & Lund University. Human islets were cultured in complete CMRL-1066 (Invitrogen) medium at 5.5 mM glucose, mouse islets and INS-1E cells at complete RPMI-1640 medium at 11.1 mM glucose. […] . Palmitic acid (Sigma) was dissolved at 10 mmol/l in RPMI-1640 medium containing 11% fatty acid–free bovine serum albumin (BSA) (Sigma) under an N2-atmosphere and added to the culture at 0.5 mM[64]. […] . Isolated human islets or INS-1E cells were infected with adenovirus carrying LacZ as control or MST1 or LATS2 (all Vector Biolabs), at a multiplicity of infection of 100 (human islets) or 20 (INS-1E) for 4 h[11]. Adenovirus was subsequently washed off with PBS and replaced by fresh medium with 10% FBS and the respective analysis performed after 48 h post infection.

[1] = system: obese diabetic Lepr db/db mice; assay: db/db model: ratio of secreted insulin and glucose at fed state; format: in vivo, mouse; conditions: dbdb Nera
PDK1 = PDK1 (Homo sapiens, UniProt O15530); assay: Nanosyn kinase profiling, mobility shift assay; conditions: read-out: % inhibition by neratinib
Raw264.7 cells = assay: RT-PCR of LPS-induced TNFα, IL-1β, IL-6 expression; conditions: 100 ng/mL LPS 4 h
Source text: One microgram of cDNA of each treatment sample was synthesized by using SuperScript III First-Strand Synthesis (Invitrogen). Taqman mouse primers were purchased from ThermoFisher: TNFα (Catalog No. Mm00443258_m1), IL-6 (Catalog No. Mm00446190_m1), IL-1β (Catalog No. Mm00434228_m1), and GAPDH as endogenous housekeeping control (Catalog No. Mm99999915_g1). The qPCR reaction was set up for TNFα, IL-6, IL-1β, and GAPDH individually, with technical triplicates for each gene per treatment sample and performed by the Applied Biosystems ViiA 7 real-time PCR system. The ∆∆CT method was used to analyze the relative changes in gene expression.

[2] = system: isolated islets from MST1-KO mice; assay: β-cell apoptosis (TUNEL/insulin) under diabetogenic conditions, MST1-KO islets

Chain of PDK1 (O15530 whole entry): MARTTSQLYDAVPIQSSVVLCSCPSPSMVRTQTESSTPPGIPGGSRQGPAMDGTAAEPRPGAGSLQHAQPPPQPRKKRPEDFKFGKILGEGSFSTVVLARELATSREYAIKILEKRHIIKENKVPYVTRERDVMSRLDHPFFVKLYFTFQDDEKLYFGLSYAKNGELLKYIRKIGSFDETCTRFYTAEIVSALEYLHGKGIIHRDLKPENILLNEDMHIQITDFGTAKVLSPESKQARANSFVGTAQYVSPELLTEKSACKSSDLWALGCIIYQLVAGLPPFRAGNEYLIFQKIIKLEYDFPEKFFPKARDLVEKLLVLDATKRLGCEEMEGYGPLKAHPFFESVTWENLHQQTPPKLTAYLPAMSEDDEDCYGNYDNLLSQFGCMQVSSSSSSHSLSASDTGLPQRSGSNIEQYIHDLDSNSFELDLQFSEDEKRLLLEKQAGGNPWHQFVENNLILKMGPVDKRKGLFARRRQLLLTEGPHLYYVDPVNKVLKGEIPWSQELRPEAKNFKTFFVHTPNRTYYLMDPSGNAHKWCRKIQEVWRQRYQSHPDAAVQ

## CCOc1cc2ncc(C#N)c(Nc3ccc(OCc4ccccn4)c(Cl)c3)c2cc1NC(=O)/C=C/CN(C)C [neratinib]
INS-1E cells; 22.2 mM glucose, 72 h
  PDX1 expression reduced by elevated glucose: restored PDX1 expression
INS-1E cells; 72 h
  H2O2- and high glucose/palmitate-induced MST1 activation and apoptosis (caspase-3 and PARP cleavage): potently inhibited
INS-1E cells; HG/Pal, 10 μM, 24 h
  mitochondrial BIM induction under diabetic conditions: significantly reduced
  stress-induced MST1 activation and caspase-3 and PARP cleavage: strongly counteracted
[1]; Mean
  ins/gluc: 13.8584
[1]; fed state, individual mice
  ins/gluc: 16.7538 and 11.2869 and 14.8626 and 15.5775 and 11.515 and 13.1546
PDK1
  inhibition at 10 µM: 6%
Raw264.7 cells
  LPS-induced expression of TNFα, IL-1β, and IL-6: largely inhibited
[2]; 10 μM, 72 h
  cytokine- and glucolipotoxicity-induced apoptosis in MST1-KO islets: no significant effect
[2]; MST1-KO HG/Pal Nera 10 μM 72 h
  mean TUNEL/isolation/%: 407.974%
[2]; MST1-KO ILIF Nera 10 μM 72 h
  mean TUNEL/isolation/%: 384.79%
